Measurements as given in US11207312B2, “Metallo-beta-lactamase inhibitors and methods of use thereof” (priority 2017, dated 2021).
Like-named read-outs stand apart in the source and are kept apart here.

Key:
[1] = biological target: VIM-1 (Pseudomonas aeruginosa (strain ATCC 15692 / DSM 22644 / CIP 104116 / JCM 14847 / LMG 12228 / 1C / PRS 101 / PAO1), UniProt A0A0F7KYQ8); experiment: biochemical; conditions: CCF2-FA fluorescence assay, 2 hours at 25° C.; read-out: VIM1 IC50
Method: (§1) The Class B enzyme activities were measured in the presence of the test inhibitor in a fluorescence assay against a commercially available substrate consisting of a cephalosporin core linking 7-hydroxycoumarin to fluorescein (CCF2-FA). The enzyme (NDM-1, IMP-1 or VIM-1) and the substrate were diluted in 100 mM KH2PO4 buffer (pH 7) containing 0.005% Tween-20 and 10 μM ZnSO4. In the assay, the final concentration of enzyme was 1 pM, 2 pM and 30 pM for NDM-1, IMP-1 and VIM-1, respectively, and the final concentration of CCF2-FA was 1.25 μM. The test inhibitor was dissolved in dimethylsulfoxide and diluted 1:50 in the assay, resulting in a final concentration range of 20 μM to 0.00063 μM. In a 384-well microplate, the test inhibitor was incubated with the metallo-β-lactamase enzyme and the substrate for 2 hours at 25° C. Fluorescence at 460 nm following excitation at 405 nm was measured. The IC50 value was determined from semi-logarithmic plots of enzyme inhibition versus inhibitor concentration, with a curve generated using a 4-parameter fit.

[2] = biological target: IMP-1 (Serratia marcescens, UniProt P52699); experiment: biochemical; conditions: CCF2-FA fluorescence assay, 2 hours at 25° C.; read-out: IMP1 IC50
IMP-1, sequence (P52699 whole entry, looked up, species assumed): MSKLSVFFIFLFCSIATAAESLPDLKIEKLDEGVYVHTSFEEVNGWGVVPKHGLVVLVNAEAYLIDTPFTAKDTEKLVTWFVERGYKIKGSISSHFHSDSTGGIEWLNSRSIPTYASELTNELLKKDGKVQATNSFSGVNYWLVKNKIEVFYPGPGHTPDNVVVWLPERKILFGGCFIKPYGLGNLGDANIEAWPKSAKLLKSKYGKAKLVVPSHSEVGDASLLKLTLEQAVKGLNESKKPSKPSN
Method: as §1

[3] = tested on: Klebsiella pneumoniae expressing VIM-1 (IHMA599644); format: cell-based; conditions: with imipenem 1 μg/ml; 95% inhibition of bacterial growth
Method: (§2) The bacterial strains tested included the clinical strains Escherichia coil expressing NDM-1 (CLB30005, CLB30016), Serratia marcescens expressing IMP-1 (CL5741), and Klebsiella pneumoniae expressing VIM-1 (H-LMA599644). Inhibitor activity was measured in the presence and absence of imipenem in a 384-well microplate.
(§3) The clinical strains CLB30016, CL5741 and IHMA599644 were grown on trypticase soy agar containing 5% sheep's blood. The bacteria on agar plates were incubated at 35° C. with humidity overnight. The following day, individual colonies from each clinical strain were picked and resuspended in 5 ml saline to attain an OD600 of […], for CLB30016, C15741 and IHMA599644, respectively. These were further diluted 1:100 into 1.1× CAMHB and used to inoculate the test wells as described below.
(§4) Imipenem in 10 mM 3-(N-morpholino)propanesulfonic acid (MOPS, pH 7) was stored in single use aliquots at −80° C. […] On the day of the assay, 4 μl of antibiotic was added to 45 μl of bacteria followed by 1 μl of test compound and mixed by pipetting and with an orbital shaker. The concentration of antibiotic used in the assay was 1 μg/ml. Microplates were covered and incubated at 35° C. for 22 hours to 24 hours. At the end of the incubation, absorbance was determined using a spectrophotometer. The synergistic concentration of MBLI was determined by identifying the lowest concentration of test compound in the presence of a given concentration of antibiotic that was required to inhibit 95% of the growth of the bacteria. The results for Examples 1-209 are reported in Table 1, expressed as the concentration of compound that potentiated the action of antibiotic (imipenem) affecting 95% inhibition of bacterial growth (MITC95).

[4] = tested on: Escherichia coli expressing NDM-1 (CLB30016); format: cell-based; conditions: with imipenem 1 μg/ml; 95% inhibition of bacterial growth
Method: as §2, §3, §4

[5] = tested on: Serratia marcescens expressing IMP-1 (CL5741); format: cell-based; conditions: with imipenem 1 μg/ml; 95% inhibition of bacterial growth
Method: as §2, §3, §4

[6] = tested on: P. aeruginosa MB9799 (efflux-, IMP-1 plasmid); format: cell-based, Pseudomonas aeruginosa; conditions: efflux − (MB9799) strain; imipenem at 2 μg/mL; in the presence of a class A, C, D serine β-lactamase inhibitor closely related to relebactam
Source text: (§5) The strain background is Pseudomonas aeruginosa PAO1. A wild-type (M135919) and an isogenic strain in which multiple efflux pumps have been disrupted genetically were used. The MBL IMP-1, obtained from a clinical isolate was introduced into the strain pair by the following process:
(§6) The plasmid DNA was transformed into parental MB5919 (oprD+, efflux+, inducible AmpC) and MB5890 (oprD+, efflux−, inducible AmpC) isogenic strains by electroporation.
(§7) The strain set was then used as a pair to determine the effect of metallo-β-lactamase inhibitors of Formula I on the MIC of imipenem and/or ceftazidime. A fixed concentration of antibiotic is included in standard microbroth MIC tests, usually at the CLSI breakpoint concentration, A fixed amount of a class A/C beta-lactamase inhibitor is also included to inhibit the resident Pseudomonas AmpC enzyme. A serial titration of the metallo-β-lactamase inhibitor was included and the concentration of metallo-β-lactamase inhibitor which restores susceptibility of the strain to the included antibiotic was recorded. That concentration of metallo-β-lactamase inhibitor was then compared between the two strains to determine the fold difference between the efflux+(MB9798) and efflux−(MI39799) strains, which indicates the extent to which the MBLi is subject to efflux.

[7] = tested on: P. aeruginosa MB9798 (efflux+, IMP-1 plasmid); conditions: for MB9798 MITC95 P. aeruginosa uM Efflux WT: efflux + (MB9798) strain, imipenem at 2 μg/mL, in the presence of a class A, C, D serine β-lactamase inhibitor closely related to relebactam; for Efflux ratio: fold difference between efflux+ (MB9798) and efflux− (MB9799) strains
Source text: as §5, §6, §7

[8] = biological target: NDM-1 (Klebsiella pneumoniae, UniProt C7C422); experiment: biochemical; format: biochemical; conditions: CCF2-FA fluorescence assay, 2 hours at 25° C.
NDM-1, sequence (C7C422 whole entry, looked up, species assumed): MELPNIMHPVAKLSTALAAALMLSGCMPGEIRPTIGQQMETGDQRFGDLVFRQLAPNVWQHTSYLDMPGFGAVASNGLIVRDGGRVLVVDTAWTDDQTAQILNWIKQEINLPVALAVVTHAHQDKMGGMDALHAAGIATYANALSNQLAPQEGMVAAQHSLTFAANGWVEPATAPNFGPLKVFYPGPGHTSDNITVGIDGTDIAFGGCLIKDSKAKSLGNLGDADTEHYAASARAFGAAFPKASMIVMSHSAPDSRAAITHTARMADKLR
Method: as §1

[9] = biological target: VIM-2 (Escherichia coli, UniProt Q5U7L7); experiment: biochemical
[10] = CCF2-FA fluorescence assay, read-out: VIM2 IC50

| Structure (SMILES) | IC50 [1] | IC50 [2] | IHMA599644 K. pneumoniae MITC95 VIM [3] | CLB30016 E. coli MITC95 NDM [4] | CL5741 S. marcescens MITC95 IMP [5] | MB9799 MITC95 P. aeruginosa uM Efflux Mutant [6] | MB9798 MITC95 P. aeruginosa uM Efflux WT [7] | Efflux ratio [7] | IC50 [8] | IC50 [9, 10] | IC50 ([9]; VIM2 IC50, CCF2-FA fluorescence assay) |
| --- | --- | --- | --- | --- | --- | --- | --- | --- | --- | --- | --- |
| NC[C@@H](O)CNS(=O)(=O)c1ccc(N2CCC(C(N)CO)CC2)c(-c2nn[nH]n2)c1S(N)(=O)=O (mixture of isomers) [Example 182, 4-(4-(1-Amino-2-hydroxyethyl)piperidin-1-yl)-N1-((R)-3-amino-2-hydroxypropyl)-3-(2H-tetrazol-5-yl)benzene-1,2-disulfonamide] | 0.27 nM | 4 nM | 1.56 µM | 0.39 µM | 0.78 µM | 0.78 µM | 0.78 µM | 1.00 | 3.77 nM | 3.82 nM | – |
| C[C@H](CN)NS(=O)(=O)c1ccc(N2CC[C@@H](N)[C@@H](F)C2)c(-c2nn[nH]n2)c1S(N)(=O)=O (racemic) [Example 5] | 0.13 nM | 1.81 nM | 0.78 µM | 0.10 µM | 0.20 µM | 0.39 µM | 0.78 µM | 2.00 | 0.96 nM | 2.54 nM | – |
| NC[C@@H](O)CNS(=O)(=O)c1ccc(N2CC[C@@H](CN)[C@@H](F)C2)c(-c2nn[nH]n2)c1S(N)(=O)=O (racemic) [Example 6] | 0.17 nM | 3.38 nM | 0.78 µM | 0.20 µM | 0.20 µM | 0.39 µM | 0.78 µM | 2.00 | 1.12 nM | 4.19 nM | – |
| NC[C@@H]1CCN(c2ccc(S(=O)(=O)N[C@@H]3CCNC3)c(S(N)(=O)=O)c2-c2nn[nH]n2)C[C@@H]1F (racemic) [Example 7] | 0.24 nM | 3.49 nM | 0.78 µM | 0.20 µM | 0.39 µM | 0.39 µM | 0.78 µM | 2.00 | 0.68 nM | 4.46 nM | – |
| C[C@H](CN)NS(=O)(=O)c1ccc(N2CC[C@@H](CN)[C@@H](F)C2)c(-c2nn[nH]n2)c1S(N)(=O)=O (racemic) [Example 8] | 0.07 nM | 1.12 nM | 0.78 µM | 0.20 µM | 0.39 µM | 0.39 µM | 0.78 µM | 2.00 | 0.19 nM | 2.35 nM | – |
| NC[C@@H](O)CNS(=O)(=O)c1ccc(N2CCC(C(N)CO)CC2)c(-c2nn[nH]n2)c1S(N)(=O)=O (single isomer, unassigned) [Example 180] | 0.44 nM | 6.3 nM | 1.56 µM | 0.39 µM | 0.78 µM | 0.78 µM | 0.78 µM | 1.00 | 5.73 nM | – | 5.92 nM |
| NC[C@@H](O)CNS(=O)(=O)c1ccc(N2CCC(C(N)CO)CC2)c(-c2nn[nH]n2)c1S(N)(=O)=O (single isomer, unassigned) [Example 181] | 0.22 nM | 5.78 nM | 1.56 µM | 0.39 µM | 0.39 µM | 0.78 µM | 0.78 µM | 1.00 | 4.62 nM | 5.87 nM | – |
| NCC=C1CCCN(c2ccc(S(=O)(=O)NC[C@H](O)CN)c(S(N)(=O)=O)c2-c2nn[nH]n2)C1 (single isomer, unassigned; isomer a) [Example 205] | 0.34 nM | 19.7 nM | 1.56 µM | 0.78 µM | 1.56 µM | 1.56 µM | 12.50 µM | 8.00 | 7.59 nM | 1.07 nM | – |
| NC/C=C1\CCCN(c2ccc(S(=O)(=O)NC[C@H](O)CN)c(S(N)(=O)=O)c2-c2nn[nH]n2)C1 (single isomer, unassigned; isomer b) [Example 206] | 0.23 nM | 15.1 nM | 1.56 µM | 0.78 µM | 1.56 µM | 1.56 µM | 6.25 µM | 4.00 | 9.21 nM | 1.52 nM | – |
| NCC1CCN(c2ccc(S(=O)(=O)N[C@@H]3CCNC3)c(S(N)(=O)=O)c2-c2nn[nH]n2)CCN1 (stereo partly drawn) [Example 163] | 0.74 nM | 49 nM | 1.56 µM | 0.39 µM | 1.56 µM | 3.13 µM | 6.25 µM | 2.00 | – | 52.9 nM | – |
| NC[C@@H](O)CNS(=O)(=O)c1ccc(Nc2ncc[nH]2)c(-c2nn[nH]n2)c1S(N)(=O)=O [Example 203, (R)-4-((1H-imidazol-2-yl)amino)-N1-(3-amino-2-hydroxypropyl)-3-(2-tetrazol-5-yl)benzene-1,2-disulfonamide bis(2,2,2-trifluoroacetate)] | 8.5 nM | 26.4 nM | 0.78 µM | 0.20 µM | 0.78 µM | 1.56 µM | 3.13 µM | 2.00 | – | 19.6 nM | – |
